What all share (type): biochemical
The target of experiment [1] is T1, fructose bisphosphate aldolase (ALD) (Thermotoga maritima, UniProt Q9WYB0).
T1 construct: gene TM_0273; heat and ammonium sulfate purification
T1 sequence (Q9WYB0 1-315): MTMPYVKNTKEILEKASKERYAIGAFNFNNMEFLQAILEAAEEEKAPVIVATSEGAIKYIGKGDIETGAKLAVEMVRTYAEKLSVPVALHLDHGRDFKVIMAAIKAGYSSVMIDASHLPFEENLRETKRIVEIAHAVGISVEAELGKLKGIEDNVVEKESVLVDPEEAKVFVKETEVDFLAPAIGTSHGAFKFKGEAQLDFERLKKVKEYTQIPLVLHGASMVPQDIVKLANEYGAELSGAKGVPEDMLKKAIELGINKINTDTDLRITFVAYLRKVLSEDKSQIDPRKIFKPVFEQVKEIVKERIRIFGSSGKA
The experiment is described as follows: coupled cascade with TIM, FBP and PGI; G6P by enzymatic glucose reagent.

For experiment [2], the target named is T2, fructose bisphosphatase (FBP) (Thermotoga maritima, UniProt O33832).
T2 construct: gene suhB; recombinant, E. coli, plasmid pCIF (CBM-intein-FBP), tag-free after intein self-cleavage
T2 sequence (O33832 1-256): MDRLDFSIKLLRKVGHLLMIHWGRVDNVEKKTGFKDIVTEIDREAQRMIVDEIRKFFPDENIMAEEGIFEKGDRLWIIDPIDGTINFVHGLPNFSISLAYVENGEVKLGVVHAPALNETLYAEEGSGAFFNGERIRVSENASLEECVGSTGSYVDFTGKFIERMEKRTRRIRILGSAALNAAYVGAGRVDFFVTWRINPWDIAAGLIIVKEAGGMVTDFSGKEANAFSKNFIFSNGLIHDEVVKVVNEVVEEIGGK
The experiment is described as follows: FBP activity assay as described elsewhere; also in four-enzyme cascade.

Experiment [3] has as its target T3, phosphoglucose isomerase (PGI) (Acetivibrio thermocellus, UniProt A3DBX9).
T3 construct: recombinant, E. coli, plasmid pCIP (CBM-intein-PGI), tag-free after intein self-cleavage
T3 sequence (A3DBX9 1-448): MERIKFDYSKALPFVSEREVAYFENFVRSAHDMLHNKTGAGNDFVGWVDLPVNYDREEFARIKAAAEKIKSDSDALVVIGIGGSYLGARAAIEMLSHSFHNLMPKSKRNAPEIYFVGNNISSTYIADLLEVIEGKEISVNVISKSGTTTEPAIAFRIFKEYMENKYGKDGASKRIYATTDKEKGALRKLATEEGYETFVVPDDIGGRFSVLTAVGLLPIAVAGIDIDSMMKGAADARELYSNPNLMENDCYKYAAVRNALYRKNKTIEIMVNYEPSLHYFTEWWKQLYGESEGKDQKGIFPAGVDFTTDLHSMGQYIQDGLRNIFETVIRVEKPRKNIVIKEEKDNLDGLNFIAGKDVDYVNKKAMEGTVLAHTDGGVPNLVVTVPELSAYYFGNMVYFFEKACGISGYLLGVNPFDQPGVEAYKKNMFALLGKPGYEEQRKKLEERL
The experiment is described as follows: G6P formation by enzymatic glucose kit. The conditions noted are these: 100 mM HEPES pH 7.5, 10 mM MgCl2, 0.5 mM MnCl2, 60°C.

For `O=C(CO)COP(=O)(O)O` [dihydroxyacetone phosphate], the “coupled cascade with TIM, FBP and PGI; G6P by enzymatic glucose reagent” value in experiment [1] (co-substrate G3P) is “G3P and DHAP were substrates and F16P was the product”.
Regarding `O=P(O)(O)OC[C@H]1OC(O)(COP(=O)(O)O)[C@@H](O)[C@@H]1O` (stereo partly shown) [fructose 1,6-bisphosphate], in experiment [2], the “FBP activity assay as described elsewhere; also in four-enzyme cascade” value is “FBP catalyses the irreversible conversion of F16P to fructose 6-phosphate (F6P)”.
Consider `O=P(O)(O)OC[C@H]1OC(O)(CO)[C@@H](O)[C@@H]1O` (stereo partly shown) [fructose 6-phosphate], for which the “G6P formation by enzymatic glucose kit” value in experiment [3] is “PGI reversibly converts fructose-6-phosphate (F6P) and glucose-6-phosphate (G6P)”.
`O=C[C@H](O)COP(=O)(O)O` [glyceraldehyde-3-phosphate]: the “coupled cascade with TIM, FBP and PGI; G6P by enzymatic glucose reagent” value in experiment [1] (co-substrate DHAP) was “G3P and DHAP were substrates and F16P was the product”.

These data come from article PMC3621832, “Non-Complexed Four Cascade Enzyme Mixture: Simple Purification and Synergetic Co-stabilization” (PLoS ONE, 2013).
